Measured values: patent US10745416B2, “Macrocyclic compounds for treating disease” (Turning Point Therapeutics, Inc., priority 2017, dated 2020)
pIC50: −log10 of the molar value.

Assays:
RET = molecular target: T1, RET (Homo sapiens, UniProt P07949, C634W); test: Immunoblotting for cellular RET phosphorylation in TT cells; format: cell-based; details: 4 hours treatment, read-out: suppression of RET autophosphorylation IC50
T1 construct: host or cells: TT (human medullary thyroid carcinoma)
Method: Human medulla thyroid carcinoma cell line TT (containing RET […] mutation) and acute myelogenous cell line KG-1 were purchased from ATCC. Human colon cancer cell line KMI2 (containing TPM3-TRKA) was obtained from NCI. Half a million cells per well were seeded in 24 well plate for 24 hrs, and then treated with compounds for 4 hours. Cells were collected after treatment and lysed in RIPA buffer (50 mM Tris, pH 7.4, 150 mM NaCl, 1% NP-40, 0.5% Deoxycholate, 0.1% SDS) supplemented with 10 mM EDTA, 1× Halt protease and phosphatase inhibitors (Thermo Scientific). Protein lysates (approximately […]) was resolved on 4-12% Bolt Bis-Tris precasted gels with MES running buffer (Life Technologies), transferred to nitrocellulose membranes using Trans-Blot Turbo Transfer System (Bio-Rad) and detected with antibodies targeting phosphorylated RET (Y905) (Cell Signaling Technology), total RET (Cell Signaling Technology), actin (Cell Signaling Technology). Antibodies were typically incubated overnight at 4° C. with gentle shake, followed by washes and incubation with the appropriate HRP-conjugated secondary antibodies. […] The relative density of the chemiluminescent bands were quantified via Image Studio Digits from LICOR. The half inhibitory concentration (IC50) value is calculated using non-linear regression analysis through GraphPad Prism software (GraphPad, Inc., San Diego, Calif.).

BaF3 KIF5B-RET WT tumors = test: BaF3 KIF5B-RET WT subcutaneous xenograft tumor model; format: in vivo, SCID/Beige mice
Method: BaF3 KIF5B-RET WT and BaF3 KIF5B-RET G810R cells were cultured using standard techniques in RPMI-1640 medium (Corning, Inc) with 10% fetal bovine serum (Thermo Fisher Scientific, Inc) at 37° C. in a humidified atmosphere with 5% CO2. TI cells were cultured using standard techniques in F-12K medium (Corning, Inc) with 10% fetal bovine serum (Thermo Fisher Scientific, Inc) at 37° C. in a humidified atmosphere with 5% CO2. For implantation, cells were harvested and pelleted by centrifugation at 250 g for 2 minutes. Cells were washed once and resuspended in serum-free medium supplemented with 50% matrigel (v/v).
For cell derived xenograft models, female SCID/Beige mice (5-8 weeks of age) were obtained from Charles River Laboratory and were housed in Innovive IVC disposable cages on HEPA filtered ventilated racks with ad libitum access to rodent chow and water. Five million cells in 100 μL serum-free medium supplemented with 50% matrigel (Corning, Inc) were implanted subcutaneously in the right flank region of the mouse. Tumor size and body weight were measured on designated days. Tumor size was measured with an electronic caliper and tumor volume was calculated as the product of length*width^2*0.5. Mice were randomized by tumor size into treatment groups when tumor volume reached about 200 mm^3 and Compound 5 was administered orally (BID) at determined doses.
The C634W mutation of RET in T cells underlies the molecular mechanism for tumor growth. SCID/Beige mice bearing TT tumors (at the average tumor size of around 200 mm^3) were dosed with Compound 5 orally BID for 27 days (FIG. 4A). The control group of mice were given vehicle only. Tumor volume (TMV) was measured by caliper on the indicated days and is shown at mean±sem in FIG. 4A. […] In the case of TMVTreated Last Day of Treatment<TMVTreated First Day of Treatment, tumor regression (REG) was calculated as 100%*(1−TMVTreated Last Day of Treatment/TMVTreated First Day of Treatment). […]
In the BaF3 KIF5B-RET WT and BaF3 KIF5B-RET G810R xenograft tumor models, the growth of tumor is presumably dependent on the extopic RET activity. […] Tumor volume (TMV) was measured by caliper on the indicated days and is shown at mean±sem in FIG. 5A. The mean TMVs are lower in the groups treated with compound 5 at 1 mg/kg BID (p>0.05) and 5 mg/kg BID (p<0.0001) compared to that of the control group as determined by two-way repeated ANOVA followed by post hoc analysis. […] Tumor volume (TMV) was measured by caliper on the indicated days and is shown at mean±sem in FIG. 6A. The mean TMVs are lower in the groups treated with compound 5 at 1 mg/kg BID (p>0.05), 5 mg/kg BID (p<0.0001) and 10 mg/kg BID (p<0.0001) compared to that of the control group as determined by two-way ANOVA followed by post hoc analysis.

T1 sequence (P07949 29-1114 C634W): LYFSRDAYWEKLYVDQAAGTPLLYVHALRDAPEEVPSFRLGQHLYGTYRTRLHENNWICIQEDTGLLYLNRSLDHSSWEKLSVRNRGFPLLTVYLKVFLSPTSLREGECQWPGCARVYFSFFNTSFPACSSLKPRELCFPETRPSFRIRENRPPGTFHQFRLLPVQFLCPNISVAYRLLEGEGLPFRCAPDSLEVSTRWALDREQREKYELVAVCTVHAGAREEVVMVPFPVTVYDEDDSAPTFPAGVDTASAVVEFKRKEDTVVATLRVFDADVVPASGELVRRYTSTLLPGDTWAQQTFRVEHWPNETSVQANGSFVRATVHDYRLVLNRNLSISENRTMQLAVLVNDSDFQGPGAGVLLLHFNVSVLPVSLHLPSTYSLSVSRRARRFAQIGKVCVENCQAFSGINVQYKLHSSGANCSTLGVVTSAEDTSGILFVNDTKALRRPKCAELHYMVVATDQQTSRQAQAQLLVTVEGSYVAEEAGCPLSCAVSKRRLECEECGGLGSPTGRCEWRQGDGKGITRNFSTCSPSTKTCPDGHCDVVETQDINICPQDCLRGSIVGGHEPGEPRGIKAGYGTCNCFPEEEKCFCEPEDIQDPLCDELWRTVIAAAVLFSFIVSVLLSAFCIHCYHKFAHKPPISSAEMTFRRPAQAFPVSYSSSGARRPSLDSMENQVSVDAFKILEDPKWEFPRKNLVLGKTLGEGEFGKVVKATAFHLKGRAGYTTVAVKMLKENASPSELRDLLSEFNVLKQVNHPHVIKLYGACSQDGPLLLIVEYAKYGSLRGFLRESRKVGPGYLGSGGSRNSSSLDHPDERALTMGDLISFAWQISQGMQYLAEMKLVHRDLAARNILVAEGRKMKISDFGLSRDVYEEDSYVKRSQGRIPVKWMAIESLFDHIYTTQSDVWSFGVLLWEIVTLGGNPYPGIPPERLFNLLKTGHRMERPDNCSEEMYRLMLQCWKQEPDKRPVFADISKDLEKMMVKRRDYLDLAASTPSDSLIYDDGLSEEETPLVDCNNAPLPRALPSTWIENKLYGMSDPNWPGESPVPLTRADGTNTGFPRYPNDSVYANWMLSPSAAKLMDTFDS

pIC50 (RET): ~9.52
Compound: C[C@H]1CNC(=O)c2cnn3cc4c(nc23)N(Cc2cc(F)cnc2O1)[C@@H]1CCC[C@@H]1O4 [Compound 5, (3aR,11S,20aS)-7-fluoro-11-methyl-2,3,3a,12,13,20a-hexahydro-1H,5H-17-19-(metheno)cyclopenta[5,6][1,4] oxazino[3,4-i]pyrazolo[4,3-f]pyrido[3,2-l][1,4,8,10]oxatriazacyclotridecin-14(11H)-one]
mean tumor volume (TMV) compared to control group (BaF3 KIF5B-RET WT tumors; 1 mg/kg BID (p>0.05) and 5 mg/kg BID (p<0.0001), 10 days): lower
body weight and overt abnormality (BaF3 KIF5B-RET WT tumors; 1 mg/kg BID and 5 mg/kg BID, 10 days): No body weight loss or overt abnormality
tumor growth inhibition (TGI) (BaF3 KIF5B-RET WT tumors; 1 mg/kg BID orally for 10 days): 21%
tumor regression (BaF3 KIF5B-RET WT tumors; 5 mg/kg BID orally for 10 days): 63%
